Measurements taken from patent US12617795B2, “Substituted 6,7-dihydro-5H-pyrrolo[3,4-d]pyrimidines, 5,7-dihydrofuro[3,4-d]pyrimidines, and pyrido[2,3-d]pyrimidines as KCC2 modulators” (Astrazeneca AB, priority 2020, dated 2026).

What follows are molecules tested against T1, KCC2 (Homo sapiens, UniProt Q9H2X9) (assay: KCC2 thallium transport FLIPR-based assay (Tl+ influx in HEK293 cells expressing KCC2)). Conditions: 90 min compound incubation at RT, thallium flux at 120 s used to determine EC50.
T1 construct: expressed in transfected cells; host or cells: HEK293 cells electroporated (Maxcyte STX) with the pcDNA3.1 KCC2 plasmid
T1 sequence (Q9H2X9 1-1139): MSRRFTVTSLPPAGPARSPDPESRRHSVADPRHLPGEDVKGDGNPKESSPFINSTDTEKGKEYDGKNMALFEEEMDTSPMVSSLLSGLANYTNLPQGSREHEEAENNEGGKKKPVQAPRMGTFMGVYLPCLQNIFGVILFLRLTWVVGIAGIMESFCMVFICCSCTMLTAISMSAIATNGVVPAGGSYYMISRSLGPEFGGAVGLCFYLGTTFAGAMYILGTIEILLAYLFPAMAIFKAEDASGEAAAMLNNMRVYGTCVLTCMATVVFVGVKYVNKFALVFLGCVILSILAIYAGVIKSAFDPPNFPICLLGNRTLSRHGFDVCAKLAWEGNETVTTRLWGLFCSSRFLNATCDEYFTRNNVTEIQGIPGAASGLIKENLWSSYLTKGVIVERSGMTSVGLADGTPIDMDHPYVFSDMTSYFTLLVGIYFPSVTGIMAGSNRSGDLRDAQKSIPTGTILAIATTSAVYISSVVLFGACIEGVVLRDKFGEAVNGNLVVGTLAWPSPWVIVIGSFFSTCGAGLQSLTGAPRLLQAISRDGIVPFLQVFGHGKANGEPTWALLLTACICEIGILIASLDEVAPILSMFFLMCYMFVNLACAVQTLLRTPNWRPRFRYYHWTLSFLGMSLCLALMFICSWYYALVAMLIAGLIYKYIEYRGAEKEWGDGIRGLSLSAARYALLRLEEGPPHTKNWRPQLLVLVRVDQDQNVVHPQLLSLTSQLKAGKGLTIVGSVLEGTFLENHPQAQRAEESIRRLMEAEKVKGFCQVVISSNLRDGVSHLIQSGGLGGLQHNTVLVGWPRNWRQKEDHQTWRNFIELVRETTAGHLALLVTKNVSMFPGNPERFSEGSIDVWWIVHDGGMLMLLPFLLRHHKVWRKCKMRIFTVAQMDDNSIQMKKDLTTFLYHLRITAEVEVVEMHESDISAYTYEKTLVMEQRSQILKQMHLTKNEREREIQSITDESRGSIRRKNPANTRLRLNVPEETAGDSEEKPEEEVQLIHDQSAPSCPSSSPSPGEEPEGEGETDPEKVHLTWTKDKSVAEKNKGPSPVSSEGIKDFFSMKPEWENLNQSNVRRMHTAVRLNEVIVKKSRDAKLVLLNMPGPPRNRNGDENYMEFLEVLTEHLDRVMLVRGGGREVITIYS
Assay type: cell-based
Method: A thallium transport FLIPR-based assay was used to measure the ability of compounds to activate KCC2. KCC2 activity is assessed by measuring KCC2-dependent Tl^+ influx in a KCC2-expressing cell. The assay protocol was based on those described by Delpire et al (Proc Natl Acad Sci USA. 2009 Mar. 31; 106(13): 5383-5388) and Zhang et al (Journal of Biomolecular Screening 15(2): 2010).
KCC2 was synthesised and codon optimised by GeneArt based on the Uniprot sequence Q9H2X9. The final sequence was subcloned into pcDNA3.1.
HEK293 cells were grown in 10 layer cell stacks at 37° C., 5% CO2, in DMEM, 10% fetal calf serum and 2 mM Glutamine. The cells were detached by removing the media and washing the cell stack with 100 ml of PBS. The PBS was removed and 100 ml of 1× TrypLE was added and the cell stack returned to 37° C. for 5 min. The detached cells were then counted in a Vi Cell counter and spun for 10 min at 1250 rpm in a Sorval Legend centrifuge. The cells were diluted down in Maxcyte electroporation buffer at 4× the final concentration and spun as before. The cell pellet was resuspended at 1×10^8/cells per ml and electroporated in a Maxcyte Cl 2.2 bag on a Maxcyte STX machine via the HEK293 programme with 200 ug/ml of plasmid DNA. The cells were then allowed to recover for 30 min before adding to 500 ml of PBS and then counted again on the Vi Cell. The cells were then frozen down in planer controlled rate freeze in 90% complete media, 10% DMSO.
All reagents were dispensed using a Mulitdrop Combi unless stated otherwise. All FluXOR Invitrogen propriety buffer compositions are mentioned in tables below.
HEK293 KCC2 cells were harvested at a density of 3.33×10^5 cells/mL in complete media (DMEM, Sigma, D6546, 10% fetal calf serum and 1% Glutamax) and 30 μL per well seeded into 384-well PDL coated black-clear plates (Corning, 354663). Leave cells at RT for 20 mins to settle before incubating for 48 h at 37° C., 5% CO2. Following incubation, perform three wash steps in HBSS (Sigma, H6648) using a Biotek cell washer with the final aspiration leaving 20 μL HBSS residual volume in each well. A further 20 μL per well of thallium loading dye is then added (1 h, RT, protect from light). 5 μL of test compounds (100 μM top concentration, 1:2 dilutions, 12 point curve) were added using the FLIPR TETRA and incubated at RT for 90 min in the dark. Following compound incubation, the thallium flux response is read on FLIPR TETRA (ex. 515-575 nm) which is initiated by FLIRR TETRA dispensing 5 μL stimulus buffer into each well. Recordings are measured every 1 second for 120 seconds. Thallium flux at 120 s used to determine EC50.
Compound buffer: Assay buffer with 1 μL of bumetanide per 10 ml.
With `C[C@@H]1CN(c2nc(Nc3ccc(C4CCCCC4)cc3)c3cccnc3n2)CCO1` [Example 96, N-(4-cyclohexylphenyl)-2-[(2R)-2-methylmorpholin-4-yl]pyrido[2,3-d]pyrimidin-4-amine] the EC50 was 2.92 µM.
`CC(C)N1Cc2c(Nc3ccc(CC(F)(F)F)cc3)nc(N3CCO[C@H](C)C3)nc2C1=O` [Example 65, 2-[(2R)-2-methylmorpholin-4-yl]-6-(propan-2-yl)-4-{[4-(2,2,2-trifluoroethyl)phenyl]amino}-5,6-dihydro-7H-pyrrolo[3,4-d]pyrimidin-7-one] was tested, and the EC50 was 7.65 µM.
With `CC(C)N1Cc2c(Nc3ccc(C4CCCCC4)cc3)nc(N3CCOCC3)nc2C1=O` [Example 11, 4-[(4-cyclohexylphenyl)amino]-2-(morpholin-4-yl)-6-(propan-2-yl)-5,6-dihydro-7H-pyrrolo[3,4-d]pyrimidin-7-one] the EC50 was 2.01 µM.
With `C#CCN1Cc2c(Nc3ccc(C(C)C)cc3)nc(N3CCOCC3)nc2C1=O` [Example 76, 2-(morpholin-4-yl)-4-{[4-(propan-2-yl)phenyl]amino}-6-(prop-2-yn-1-yl)-5,6-dihydro-7H-pyrrolo[3,4-d]pyrimidin-7-one] the EC50 was 6.89 µM.
`c1cc(C2CCCCC2)ccc1Nc1nc(N2CCOC(C3CC3)C2)nc2c1COC2` (stereo not shown) [Example 92, N-(4-cyclohexylphenyl)-2-(2-cyclopropyl-morpholin-4-yl)-5,7-dihydrofuro[3,4-d]pyrimidin-4-amine] was tested, and the EC50 was 2.37 µM.
`C[C@@H]1CN(c2nc3c(c(Nc4ccc(-c5ccc(OCCCCCC(F)(F)F)cc5)cc4)n2)COC3)CCO1` [Example 94, 2-[(2R)-2-methylmorpholin-4-yl]-N-{4′-[(6,6,6-trifluorohexyl)oxy][1,1′-biphenyl]-4-yl}-5,7-dihydrofuro[3,4-d]pyrimidin-4-amine] was tested, and the EC50 was 1.3 µM.
For `C[C@@H]1CN(c2nc(Nc3ccc(C4CCC4)cc3)c3c(n2)C(=O)N(CCCN(C)C)C3)CCO1` [Example 74, 4-[(4-cyclobulylphenyl)amino]-6-[3-(dimethylamino)propyl]-2-[(2R)-2-methylmorpholin-4-yl]-5,6-dihydro-7H-pyrrolo[3,4-d]pyrimidin-7-one], the EC50 was 3.7 µM.
`CCCN(CCC)c1nc(Nc2ccc(C3CCCCC3)cc2)c2c(n1)C(=O)N(C(C)C)C2` [Example 29, 4-[(4-cyclohexylphenyl)amino]-2-(dipropylamino)-6-(propan-2-yl)-5,6-dihydro-7H-pyrrolo[3,4-d]pyrimidin-7-one] showed an EC50 of 3.89 µM.
`CCCCCc1ccc(Nc2nc(N3CCO[C@H](C)C3)nc3c2CN(C(C)C)C3=O)cc1` [Example 55, 2-[(2R)-2-methylmorpholin-4-yl]-4-[(4-pentylphenyl)amino]-6-(propan-2-yl)-5,6-dihydro-7H-pyrrolo[3,4-d]pyrimidin-7-one] gave an EC50 of 2.3 µM.
For `CC(C)N1Cc2c(Nc3ccc(Oc4ccc(F)cc4)cc3)nc(N3CCO[C@H](C)C3)nc2C1=O` [Example 51, (R)-4-((4-(4-fluorophenoxy)phenyl)amino)-6-isopropyl-2-(2-methylmorpholino)-5,6-dihydro-7H-pyrrolo[3,4-d]pyrimidin-7-one], the EC50 was 0.973 µM.
Work on `CC(C)c1ccc(Nc2nc(N3C[C@H](C)O[C@@H](C)C3)nc3c2CN(C(C)C)C3=O)cc1` [Example 8, 2-[(2S,6S)-2,6-dimethylmorpholin-4-yl]-6-(propan-2-yl)-4-{[4-(propan-2-yl)phenyl]amino}-5,6-dihydro-7H-pyrrolo[3,4-d]pyrimidin-7-one] yielded an EC50 of 5.43 µM.
In the case of `CC(C)C1CN(c2nc(Nc3ccc(C4CCCCC4)cc3)c3c(n2)C(=O)N(C(C)C)C3)CCO1` (stereo not shown) [Example 18, 4-[(4-cyclohexylphenyl)amino]-6-(propan-2-yl)-2-[2-(propan-2-yl)morpholin-4-yl]-5,6-dihydro-7H-pyrrolo[3,4-d]pyrimidin-7-one], the EC50 is reported as 1.39 µM.
For `CN1CCC(N2Cc3nc(N4CCOC(C5CC5)C4)nc(Nc4ccc(C5CCCCC5)cc4)c3C2)CC1` (stereo not shown) [Example 112, N-(4-cyclohexylphenyl)-2-(2-cyclopropylmorpholino)-6-(1-methylpiperidin-4-yl)-6,7-dihydro-5H-pyrrolo[3,4-d]pyrimidin-4-amine], the EC50 was 3.57 µM.
